The source of these data is patent publication CN103285022A, “用于制备治疗多囊卵巢综合征的中药单体组合物及其制备方法” (Second Military Medical University SMMU, priority 2013, dated 2013).

Data set [1] has as its system kidney [肾脏]. In words: Kidney histopathology / renal safety. Type of data set: in vivo, rat. As to conditions: conclusion; given together (27/200/100 mg/kg), 28 days.
The subject of data set [2] is liver [肝脏]. Type of data set: in vivo, rat. The following applies: for hepatotoxicity: conclusion, given together (27/200/100 mg/kg), 28 days.
Data set [3] has as its system CYP17 mRNA. In words: RT-PCR of ovarian tissue, CYP17 mRNA. Type of data set: in vivo, rat. As to conditions: vs model group, 28 days gavage.
Data set [4] relates to 3β-HSD mRNA. In words: RT-PCR of ovarian tissue, 3β-HSD mRNA. Type of data set: in vivo, rat. The following applies: vs model group, 28 days gavage.
For data set [5], the system named is polycystic ovary syndrome rat model [多囊卵巢综合征大鼠模型]. In words: Oestrous cycle by vaginal exfoliative cytology, DHEA-induced PCOS rats. As to conditions: oral gavage 28 days, then 10 days of vaginal cytology, combination 27/200/100 mg/kg, spironolactone 20 mg/kg. Format: in vivo.
The subject of data set [6] is polycystic ovary syndrome rat model [多囊卵巢综合征动物模型]. Nature of the data set: Ovarian wet weight and ovarian coefficient. Type of data set: in vivo. As to conditions: 28 days gavage; ovarian wet weight significantly lower than model group.
The test system of data set [7] is AR mRNA. In words: RT-PCR of ovarian tissue, AR mRNA. Format: in vivo, rat. The following applies: vs model group, 28 days gavage.

Turning to `O=c1c(O)c(-c2ccc(O)c(O)c2)oc2cc(O)cc(O)c12` [槲皮素, 槲皮素(Quercetin)], the nephrotoxicity result in data set [1] is “均不具有肝肾毒性”. Further, in data set [2], the hepatotoxicity result is recorded as “均不具有肝肾毒性”.

On to `C[C@H]1COC2=C1C(=O)C(=O)c1c2ccc2c1CCCC2(C)C` [隐丹参酮, 隐丹参酮(Cryptotanshinone)], for which the nephrotoxicity entry in data set [1] is “均不具有肝肾毒性”. Also, the hepatotoxicity entry in data set [2] was “均不具有肝肾毒性”.

Consider `CC(=O)S[C@@H]1CC2=CC(=O)CC[C@]2(C)[C@H]2CC[C@@]3(C)[C@@H](CC[C@@]34CCC(=O)O4)[C@H]12` [螺内酯, 螺内酯(Spironolactone)], for which the “CYP17 mRNA expression in ovarian tissue” value in data set [3] was “显著降低”. In addition, the “3β-HSD mRNA expression in ovarian tissue” value in data set [4] is given as “显著降低”. Moreover, the “sexual cycle recovery rate” value in data set [5] stood at 80%. The liver histopathology result in data set [2] (rat, in vivo) is “个别出现肝细胞脂肪样变性,胞浆透明度增加,细胞胞浆不清,部分细胞核崩解,肝板破坏,汇管区增粗”. The “increase of ovarian volume and wet weight in model rats, effect of treatment” value in data set [6] was “均可以逆转这种情况”. Also, in data set [7], the “AR mRNA expression in ovarian tissue” value is “显著降低”.

As for `O=C(O)[C@H]1O[C@@H](Oc2cc3oc(-c4ccccc4)cc(=O)c3c(O)c2O)[C@H](O)[C@@H](O)[C@@H]1O` [黄芩苷, 黄芩苷(Baicalin)], the nephrotoxicity entry in data set [1] is “均不具有肝肾毒性”. In data set [2], the hepatotoxicity result is “均不具有肝肾毒性”.
